Data: US11896592B2, “Certain triazolopyridines and triazolopyrazines, compositions thereof and methods of use therefor” (Hutchison Medipharma Limited, priority 2009, dated 2024)

target: T1, Recombinant human Met (c-Met) (Homo sapiens, UniProt P08581); test: Inhibition of c-Met kinase activity using Transcreener FP assay; format: biochemical; conditions: Poly E4Y substrate, 28° C. 45 min, read-out: IC50, inhibition of c-Met kinase activity
T1 construct: purchased Invitrogen PV3143
T1 sequence (P08581 956-1390 limits assumed): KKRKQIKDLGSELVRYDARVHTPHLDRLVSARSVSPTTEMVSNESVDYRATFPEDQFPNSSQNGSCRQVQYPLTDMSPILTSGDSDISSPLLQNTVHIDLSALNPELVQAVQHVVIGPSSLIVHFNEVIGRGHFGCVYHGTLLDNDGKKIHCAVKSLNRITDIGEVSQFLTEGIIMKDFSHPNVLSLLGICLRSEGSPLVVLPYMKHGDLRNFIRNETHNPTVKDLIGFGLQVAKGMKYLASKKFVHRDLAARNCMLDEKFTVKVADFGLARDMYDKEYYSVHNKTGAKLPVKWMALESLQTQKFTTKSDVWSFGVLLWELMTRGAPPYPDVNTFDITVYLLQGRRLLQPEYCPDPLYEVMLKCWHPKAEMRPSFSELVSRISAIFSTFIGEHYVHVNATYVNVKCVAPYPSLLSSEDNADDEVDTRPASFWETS

| SMILES | IC50 |
| --- | --- |
| OCCn1cc(-c2ccc3nnn(C4(c5ccc6ncccc6c5)CC4)c3n2)cn1 [Compound 123] | 100 to 1000 nM |
| c1cnc2ccc(Cn3nnc4ccc(-n5cccn5)nc43)cc2c1 [Compound 80] | 100 to 1000 nM |
| c1csc(-c2ccc3nnn(Cc4ccc5ncccc5c4)c3n2)c1 [Compound 87] | 1 to 100 nM |
| COc1cccc(-c2ccc3nnn(Cc4c[nH]c5ncccc45)c3n2)c1 [Compound 112] | 1 to 100 nM |
| c1cnc2ccc(Cn3nnc4ccc(-c5cnn(C6CCOCC6)c5)nc43)cc2c1 [Compound 118] | 100 to 1000 nM |
| FC(F)(F)Cn1cc(-c2ccc3nnn(Cc4ccc5ncccc5c4)c3n2)cn1 [Compound 147] | 1 to 100 nM |
| COCCNc1cc(-c2ccc3nnn(Cc4ccc5ncccc5c4)c3n2)ccn1 [Compound 110] | 100 to 1000 nM |
| COCCn1cc(-c2cnc3nnn(Cc4ccc5nccn5c4)c3n2)cn1 [Compound 58] | 1 to 100 nM |

Other lines, results leading:

| IC50 | SMILES |
| --- | --- |
| 1 to 100 nM | COCc1cnc2ccc(Cn3nnc4ncc(-c5cnn(CCO)c5)nc43)cn12 [Compound 309] |
| 1 to 100 nM | c1cnc2ccc(Cn3nnc4ncc(Nc5ccnc(N6CCOCC6)c5)nc43)cc2c1 [Compound 230] |
| 1 to 100 nM | N#Cc1ccc(Nc2cnc3nnn(Cc4ccc5ncccc5c4)c3n2)nc1 [Compound 225] |
| 100 to 1000 nM | FC(F)(F)Cn1cc(-c2ccc3nnn(Cc4ccc5ncccc5n4)c3n2)cn1 [Compound 292] |
| 1 to 100 nM | COc1ccnc(Nc2cnc3nnn(Cc4ccc5ncccc5c4)c3n2)c1 [Compound 183] |
| 1 to 100 nM | Cc1cc(Nc2cnc3nnn(Cc4ccc5ncccc5c4)c3n2)cc(C)n1 [Compound 224] |
| 100 to 1000 nM | Cn1cc(-c2cc(Cl)c3nnn(Cc4ccc5ncccc5c4)c3n2)cn1 [Compound 263, 6-((7-Chloro-5-(1-methyl-1H-pyrazol-4-yl)-3H-[1,2,3]triazolo[4,5-b]pyridin-3-yl)methyl)quinoline] |
| 1 to 100 nM | COCc1cnc2ccc([C@H](C)n3nnc4ncc(-c5cnn(C)c5)nc43)cn12 [Compound 324] |
| 1 to 100 nM | Cn1cc(-c2cnc3nnn(Cc4ccc5ncc(Cl)n5c4)c3n2)cn1 [Compound 300] |
| 1 to 100 nM | c1cnc2ccc(Cn3nnc4ncc(Sc5ccncc5)nc43)cc2c1 [Compound 248] |
